Assay results as given in US6544727B1, “Methods and devices for the removal of psoralens from blood products” (Cerus Corporation, priority 1995, dated 2003).
“Also recorded” adds a separate entry of the source. Where two headings read alike, the source gives them in different places.

Tests used:
R17 bacteriophage [1] = assay: R17 bacteriophage inactivation assay, varying compound concentration; format: cell-based; settings: for R17 inactivation efficiency compared with AMT or 8-MOP (in words): varying concentration, Tables 6-9, FIGS. 6-10
Protocol: An r-17 bacteriophage assay was used in this example to predict pathogen inactivation efficiency and to determine nucleic acid binding of the photoreactive binding compounds of the present invention. In the r-17 assay, the bacteriophage was placed in a solution with each compound tested and was then irradiated. The ability of the phage to subsequently infect bacteria and inhibit their growth was measured. The bacteriophage was selected for its relatively accessible nucleic acid such that the culture growth inhibition would accurately reflect nucleic acid damage by the test compounds. The bacteriophage assay for nucleic acid binding to test compounds offers a safe and inexpensive procedure to identify compounds likely to display efficient pathogen inactivation.
The R17 was grown up in Hfr 3000 bacteria, approximate titer 5×10^11. (R17 and Hfr 3000 were obtained from American Tissue Culture Collection (ATCC), Washington, D.C.) The R17 phage stock was added to a solution of 15% fetal bovine serum in Dulbecco's Modified Eagles Medium (DMEM) to a final phage concentration of 10^9/mL. An aliquot (0.5 mL) was transferred to a 1.5 mL snap-top polyethylene tube. An aliquot (0.004-0.040 mL) of the test compound stock solution prepared in water, ethanol or dimethylsulfoxide at 0.80-8.0 mM was added to the tube. Compounds were tested at concentrations between 4 μM and 320 μM. […] The tubes were placed in a light device as described in EXAMPLE 1 and irradiated for between 1 and 10 minutes. Sterile 13 mL dilution tubes were prepared; each test compound required one tube with 0.4 mL of Luria broth (LB) and five tubes containing 0.5 mL of LB broth. To make the dilutions, a 0.100 mL aliquot of the irradiated solution of phage and test compound was added to the first dilution tube of 0.4 mL of media then 0.020 mL of this solution was added to the second tube of 0.5 mL medium (1:25). The second solution was then diluted serially (1:25) into the remaining tubes. To each diluted sample was added 0.050 mL of Hfr 3000 bacteria cultured overnight and 3 mL of molten LB top agar and the mixed materials were poured onto LB broth plates. After the top agar hardened, the plates were incubated at 37° C. overnight. The plaque forming units were then counted the following morning and the titer of the phage remaining after phototreatment was calculated based on the dilution factors.
The following controls were run: the “phage only” in which phage was not treated with test compound and not irradiated (listed as “starting titer” in the tables below); the “UV only” in which the phage was irradiated in the absence of test compound; and the “dark” control in which the phage/test compound solution was not irradiated before it was diluted and plated.

[2] = tested on: Salmonella tester strain TA100
Protocol: (§1) In this example the compounds of the present invention are tested for their dark mutagenicity using an Ames assay. The procedures used for the Salmonella mutagenicity test as described in detail by Maron and Ames were followed exactly. Maron, D. M. and B. N. Ames, Mutation Research 113: 173 ( 1983). A brief description for each procedure is given here. The tester strains TA97a, TA98, TA100, TA102, TA1537 and TA1538 were obtained from Dr. Ames. TA97a, TA98, TA1537 and TA1538 are frameshift tester strains. TA100 and TA102 are base-substitution tester strains. Upon receipt each strain was cultured under a variety of conditions to confirm the genotypes specific to the strains.
(§2) The first tests done with the strains were to determine the range of spontaneous reversion for each of the strains. With each mutagenicity experiment the spontaneous reversion of the tester strains to histidine independence was measured and expressed as the number of spontaneous revertants per plate. This served as the background controls.
(§3) For all experiments, the pre-incubation procedure was used. In this procedure one vial of each tester strain was thawed and 20 μL of this culture was added to 6 mL of Oxoid Nutrient Broth #2. This solution was allowed to shake for 10 hours at 37° C. In the pre-incubation procedure, 0.1 mL of this overnight culture was added to each of the required number of sterile test tubes. To half of the tubes 0.5 mL of a 10% S-9 solution containing Aroclor 1254 induced rat liver extract (Molecular Toxicology Inc., Annapolis, Md.), and MgCl2, KCl, glucose-6-phosphate, NADP, and sodium phosphate buffer (Sigma, St. Louis, Mo.) were added. To the other half of the tubes 0.5 mL of 0.2M sodium phospate buffer, pH 7.4, was used in place of the S-9 mixture (the—S9samples). Finally 0.1 mL of the test solution containing either 0, 0.1, 0.5, 1, 5, 10, 50, 100, 250, or 500 μg/mL of the test compound was added. The 0.7 mL mixture was vortexed and then pre-incubated while shaking for 20 minutes at 37° C. After shaking, 2 mL of molten top agar supplemented with histidine and biotin were added to the 0.7 mL mixture and immediately poured onto a minimal glucose agar plate (volume of base agar was 20 mL). The top agar was allowed 30 minutes to solidify and then the plates were inverted and incubated for 44 hours at 37° C. After incubation the number of revertant colonies on each plate were counted. […] (“n” represents the number of replicates performed for each data point.)

[3] = tested on: Salmonella tester strain TA1538
Protocol: as §1, §2, §3

[4] = tested on: Salmonella typhimurium tester strains; assay: Ames Salmonella dark mutagenicity test, overall assessment; format: cell-based; settings: two-fold or greater increase in revertants above background and dose dependence
Protocol: A brief description for each procedure is given here. […] TA97a, TA98, TA1537 and TA1538 are frameshift tester strains. TA100 and TA102 are base-substitution tester strains.
This served as the background controls.
For all experiments, the pre-incubation procedure was used.

HIV-1 = settings: for HIV Log Kill: 1 minute irradiation, starting titer approximately 5 logs (Table 10)
Protocol: As in the R17 assay, small aliquots of the compounds listed in TABLES 10 and 11, below, at the concentrations listed in the table, were added to stock HIV-1 to a total of 0.5 mL. The stock HIV (10^5−10^7 plaque forming units/mL) was in DMEM15% FBS. […] Controls included HIV-1 stock only, HIV-1 plus UVA only, and HIV-1 plus the highest concentration of each psoralen tested, with no UVA. Post irradiation, all samples were store frozen at −70° C. until assayed for infectivity by a microtiter plaque assay. Aliquots for measurement of residual HIV infectivity in the samples treated with a compound of the present invention were withdrawn and cultured.
Residual HIV infectivity was assayed using an MT-2 infectivity assay. […] The assay medium was 85% DMEM (with a high glucose concentration) containing 100 μg of streptomycin, 100 U of penicillin, 50 μg of gentamicin, and 1 μg of amphotericin B per mL, 15% FBS and 2 μg of Polybrene (Sigma Chemical Co., St. Louis, Mo.) per mL. Test and control samples from the inactivation procedure were diluted in 50% assay medium and 50% normal human pooled plasma The samples were serially diluted directly in 96-well plates (Corning Glass Works, Corning, N.Y.). The plates were mixed on an oscillatory shaker for 30 seconds and incubated at 37° C. in a 5% CO2 atmosphere for 1 to 18 hours. […] After an additional 1 hour of incubation at 37° C. in 5% CO2, 0.075 mL of assay medium containing 1.6% SeaPlaque agarose (FMC Bioproducts, Rockland, Me.) and prewarmed to 38.5° C. was added to each well. The plates were kept at 37° C. for a few minutes until several plates had accumulated and then centrifuged in plate carriers at 600×g for 20 minutes in a centrifuge precooled to 10° C. In the centrifuge, cell monolayers formed prior to gelling of the agarose layer. The plates were incubated for 5 days at 37° C. in 5% CO2 and stained by the addition of 0.05 mL of 50 μg/mL propidium iodide (Sigma Chemical Co.) in phosphate-buffered saline (pH 7.4) to each well. After 24 to 48 hours, the red fluorescence-stained microplaques were visualized by placing the plates on an 8,000 μW/cm^2304 nm UV light box (Fotodyne, Inc., New Berlin, Wis.). The plaques were counted at a magnification of x20 to x25 through a stereomicroscope.

R17 bacteriophage [5] = assay: R17 bacteriophage inactivation at constant concentration, varying doses of UV light; format: cell-based; settings: 1.0-3.0 J/cm^2, FIGS. 11-17
Protocol: Compounds of the present invention were also tested at a constant concentration for varying doses of UV light. Three sets of 1.5 mL tubes were prepared containing 0.6mL aliquots of R17 in DMEM (prepared as described above). The compound tested was added at the desired concentration and the samples were vortexed. The samples were then irradiated at intervals of 1.0 J/cm^2, until 3.0 J/cm^2 was reached. Between each 1.0 J/cm^2 interval, 100 μL was removed from each sample and placed in the first corresponding dilution tube, then five sequential dilutions were performed for each compound tested, at all 3 irradiation doses, as described above in this example.
Then 50 μL of Hfr 3000 bacteria was added to each tube, 3 mL of top agar was added and the tube contents were vortexed The contents of each tube was poured into its own LB plate and the plates were incubated overnight at 37° C. Plaques were counted by visual inspection the following morning.

[6] = 16 μM, starting titer approx. 7.1 logs, 1 minute irradiation = 1.2 J/cm^2 (Table 8)
[7] = 8 μM, starting titer approx. 7.2 logs, 1 minute irradiation (Table 7)
[8] = 16 μM, starting titer approx. 7.2 logs, 1 minute irradiation (Table 7)
[9] = 32 μM, starting titer approx. 7.2 logs, 1 minute irradiation (Table 7)
[10] = Experiment 1, 32 μM compound, 1′ uva
[11] = Experiment 1, 32 μM compound, 10′ uva
[12] = Experiment 1, compound only (32 μM), no uva
[13] = Experiment 2, 3.2 μM compound, 1′ uva
[14] = Experiment 2, 3.2 μM compound, 10′ uva
[15] = Experiment 2, compound only (3.2 μM), no uva
[16] = Experiment 3, 4 μM compound, 1′ uva
[17] = Experiment 3, 8 μM compound, 1′ uva
[18] = Experiment 3, 16 μM compound, 1′ uva
[19] = Experiment 3, compound only (16 μM), no uva

Cc1oc2c(C)c3oc(=O)cc(C)c3cc2c1COCCCN [Compound 4, 4′-(5-amino-2-oxa)pentyl-4,5′,8-trimethylpsoralen]
R17 Log Kill (R17 bacteriophage [1]; [6]): 2.3 log
R17 Log Kill (R17 bacteriophage [1]; 32 μM, starting titer approx. 7.1 logs, 1 minute irradiation = 1.2 J/cm^2 (Table 8)): 4.3 log
R17 Log Kill (R17 bacteriophage [1]; 64 μM, starting titer approx. 7.1 logs, 1 minute irradiation = 1.2 J/cm^2 (Table 8)): >6.1 log
revertant colonies per plate ([2]; TA100 + S9, 5 μg/plate): −10
revertant colonies per plate ([2]; TA100 + S9, 10 μg/plate): −3
revertant colonies per plate ([2]; TA100 − S9, 5 μg/plate): −41
revertant colonies per plate ([2]; TA100 − S9, 10 μg/plate): 3
revertant colonies per plate ([3]; TA1538 + S9, 5 μg/plate): 7
revertant colonies per plate ([3]; TA1538 + S9, 10 μg/plate): −2
revertant colonies per plate ([3]; TA1538 − S9, 5 μg/plate): −2
revertant colonies per plate ([3]; TA1538 − S9, 10 μg/plate): −2
mutagenic response in the Ames assay (in words) [4]: no mutagenicity
HIV Log Kill (HIV-1; 32 μM): 2.2 log
HIV Log Kill (HIV-1; 64 μM): >3.6 log

Cc1oc2c(C)c3oc(=O)cc(C)c3cc2c1CNCCN [Compound 1, 4′-(4-amino-2-aza)butyl-4,5′,8-trimethylpsoralen]
R17 Log Kill (R17 bacteriophage [1]; [7]): 1.7 log
R17 Log Kill (R17 bacteriophage [1]; [8]): 2.8 log
R17 Log Kill (R17 bacteriophage [1]; [9]): 5.3 log
R17 log kill (32 μM) (R17 bacteriophage [1]; 32 μM, starting titer approx. 7.5 logs, 1 minute irradiation): >6.6 log
Log Titer (R17 bacteriophage [1]; [10]): <1
Logs Killed (R17 bacteriophage [1]; [10]): >6.7 logs
Log Titer (R17 bacteriophage [1]; [11]): <1
Logs Killed (R17 bacteriophage [1]; [11]): >6.7 logs
Log Titer (R17 bacteriophage [1]; [12]): 7.6
Logs Killed (R17 bacteriophage [1]; [12]): 0.1 logs
Log Titer (R17 bacteriophage [1]; [13]): 6.9
Logs Killed (R17 bacteriophage [1]; [13]): 0.9 logs
Log Titer (R17 bacteriophage [1]; [14]): 6.1
Logs Killed (R17 bacteriophage [1]; [14]): 1.7 logs
Log Titer (R17 bacteriophage [1]; [15]): 7.7
Logs Killed (R17 bacteriophage [1]; [15]): 0.1 logs
Log Titer (R17 bacteriophage [1]; [16]): 6.3
Logs Killed (R17 bacteriophage [1]; [16]): 1.0 logs
Log Titer (R17 bacteriophage [1]; [17]): 5.6
Logs Killed (R17 bacteriophage [1]; [17]): 1.7 logs
Log Titer (R17 bacteriophage [1]; [18]): 3.9
Logs Killed (R17 bacteriophage [1]; [18]): 3.4 logs
Log Titer (R17 bacteriophage [1]; [19]): 7.3
Logs Killed (R17 bacteriophage [1]; [19]): 0 logs
R17 inactivation efficiency compared with AMT or 8-MOP (in words) (R17 bacteriophage [1]): much higher R17 inactivation efficiency than does 8-MOP
revertant colonies per plate ([2]; TA100 + S9, 5 μg/plate): −24
revertant colonies per plate ([2]; TA100 + S9, 10 μg/plate): −22
revertant colonies per plate ([2]; TA100 − S9, 5 μg/plate): 292
revertant colonies per plate ([2]; TA100 − S9, 10 μg/plate): 337
revertant colonies per plate ([3]; TA1538 + S9, 5 μg/plate): 21
revertant colonies per plate ([3]; TA1538 + S9, 10 μg/plate): 22
revertant colonies per plate ([3]; TA1538 − S9, 5 μg/plate): 10
revertant colonies per plate ([3]; TA1538 − S9, 10 μg/plate): 12
mutagenic response in the Ames assay (in words) [4]: weak frameshift mutagen in TA1538 at 5 μg/plate in the presence of S9; also recorded: displayed mutation in the TA100 strain, but only in the absence of S9
HIV Log Kill (HIV-1; 64 μM): 2.1 log

Cc1oc2c(C)c3oc(=O)cc(C)c3cc2c1CCN [Compound 3, 4′-(2-aminoethyl)-4,5′,8-trimethylpsoralen]
R17 Log Kill (R17 bacteriophage [1]; 8 μM, starting titer approx. 7.1 logs, 1 minute irradiation = 1.2 J/cm^2 (Table 8)): 5.6 log
R17 Log Kill (R17 bacteriophage [1]; [7]): >6.2 log
R17 Log Kill (R17 bacteriophage [1]; [6]): >6.1 log
R17 Log Kill (R17 bacteriophage [1]; [8]): >6.2 log
R17 Log Kill (R17 bacteriophage [1]; [9]): >6.2 log
R17 inactivation efficiency compared with AMT or 8-MOP (in words) (R17 bacteriophage [1]): significantly higher inactivation efficiency than does AMT
revertant colonies per plate ([2]; TA100 + S9, 5 μg/plate): −19
revertant colonies per plate ([2]; TA100 + S9, 10 μg/plate): 8
revertant colonies per plate ([2]; TA100 − S9, 5 μg/plate): 47
revertant colonies per plate ([2]; TA100 − S9, 10 μg/plate): 47
revertant colonies per plate ([3]; TA1538 + S9, 5 μg/plate): 1
revertant colonies per plate ([3]; TA1538 + S9, 10 μg/plate): 9
revertant colonies per plate ([3]; TA1538 − S9, 5 μg/plate): 0
revertant colonies per plate ([3]; TA1538 − S9, 10 μg/plate): −6
mutagenic response in the Ames assay (in words) [4]: no mutagenicity
HIV Log Kill (HIV-1; 32 μM): 2.7 log
HIV Log Kill (HIV-1; 64 μM): >3.8 log
HIV inactivation compared with AMT (in words) (HIV-1; cell-free HIV, 64 μM of compound or higher for compounds 2 and 3): significantly more active than AMT

Cc1oc2c(C)c3oc(=O)cc(C)c3cc2c1CNCCCNCCCCNCCCN [Compound 15, 4′-(14-amino-2,6,11-triaza)tetradecyl-4,5′,8-trimethylpsoralen]
R17 inactivation efficiency compared with AMT (in words) (R17 bacteriophage [5]): more efficient at inactivating R17 than was AMT
